Measured values as given in the NIST ThermoML archive (doi:10.1016/j.jct.2015.09.018).

Conditions: 101.33 kPa, Crystal 3; for molar entropy: relaxation calorimeter

[O-2].[O-2].[Ti+4] [titanium(IV) oxide]
Conditions | molar entropy [J/K/mol]
0.5 K | 0.000413
1 K | 0.000882
1.5 K | 0.00146
2 K | 0.00221
2.5 K | 0.00316
3 K | 0.00439
3.5 K | 0.00591
4 K | 0.00779
4.5 K | 0.01
5 K | 0.0127
5.5 K | 0.0158
6 K | 0.0194
6.5 K | 0.0234
7 K | 0.0279
7.5 K | 0.0328
8 K | 0.0383
8.5 K | 0.0442
9 K | 0.0506
9.5 K | 0.0575
10 K | 0.0649
11 K | 0.081
12 K | 0.0989
13 K | 0.119
14 K | 0.141
15 K | 0.164
16 K | 0.19
17 K | 0.218
18 K | 0.248
19 K | 0.28
20 K | 0.314
25 K | 0.524
30 K | 0.798
35 K | 1.14
40 K | 1.55
45 K | 2.02
50 K | 2.55
55 K | 3.15
60 K | 3.8
65 K | 4.5
70 K | 5.25
75 K | 6.04
80 K | 6.87
85 K | 7.74
90 K | 8.65
95 K | 9.59
100 K | 10.56
110 K | 12.56
120 K | 14.64
130 K | 16.77
140 K | 18.94
150 K | 21.13
160 K | 23.34
170 K | 25.56
180 K | 27.77
190 K | 29.99
200 K | 32.19
210 K | 34.38
220 K | 36.55
230 K | 38.69
240 K | 40.82
250 K | 42.91
260 K | 44.98
270 K | 47.03
273.15 K | 47.66
280 K | 49.04
290 K | 51.02
298.15 K | 52.61
300 K | 52.97
305 K | 53.94

Conditions | mass density [kg/m3]
298.15 K, X-ray diffraction | 4130
